Laboratory results reported in patent US4668677A, “4-phenylphthalazine derivatives, their preparation and their use as pharmaceuticals” (Mitsubishi Chemical Industries Limited, priority 1984, dated 1987).

What was measured:
blood platelets [1] = experiment: Activity to inhibit the aggregation of blood platelets (collagen, ex vivo after oral administration); type: in vivo, rat (male Wistar-ST strain); details: Rattus norvegicus, Platelet, po, read-out: Inhibitory rate of blood platelet aggregation
Protocol: Male Wistar-ST strain rats of an average body weight of 250 g were used, a group consisting of 8 animals. The test compound indicated in the following Table 1 was orally administered to rats in the form of a suspension in a 1% tragacanth aqueous solution at 4 ml/Kg (the test compound 10 mg/Kg).
One hour after the administration, blood samples were obtained from the carotid artery by means of a cannule. […] Tubes were turned upside-down and then subjected to centrifugation at 200×g over 15 minutes to assign the supernatant as a platelet-rich plasma (PRP). The residue was further centrifuged at […] over 15 minutes to assign the supernatant as a platelet-poor plasma (PPP). These supernatants were applied for determining the ability to aggregate blood platelets. […] As an aggregation inducing agent, collagen (availale from Hormon-chemie A.G.) was used at a concentration of 7 to 10 μg/ml.
Inhibitory rate to aggregate blood platelets was calculated according to the following equation: [formula] A: […] in the group to which the 1% tragacanth solution alone was given (Control)
B: Aggregation rate in the group to which the tragacanth solution of the test compound was given.

blood platelets [2] = experiment: Activity to inhibit the blood platelet adhesion (glass bead method); type: cell-based, rat (male Wistar-ST strain); details: Rattus norvegicus, read-out: Inhibitory rate of blood platelet adhesion
Protocol: As experimental animals, there were used male Wistar-ST strain rats of an average body weight of 250 g.
Blood samples were obained from carotid arteries by means of a cannule and immediately admixed with sodium citrate at a volume ratio of 1/10. The mixture was centrifuged at 200×g over 15 minutes to collect the supernatant (platelet-rich plasma: PRP). The PRP was then centrifuged at 2000×g over 15 minutes and the supernatant was removed to give blood platelet pellet.
To the resultant blood platelet pellet was added a 15 mM tris.HCl buffer solution with EDTA (pH 7.4) to resuspend blood platelets therein and then one applied centrifugation at 2000×g over 15 minutes and the supernatant was removed. The resultant washed blood platelets were added to a 0.3 mM tris.HCl buffer solution with CaCl2 (pH 7.4) to resuspend blood platelets therein, whereby there was prepared a blood platelet suspension adjusted to five hundred thousand platelets/μl. To 2 ml of the blood platelet suspension were added 2 μl of a methanolic solution of each test compound and incubation was effected for 15 minutes. Then blood platelet adhesion was determined according to a glass bead method by using a timing blood suction apparatus for determining the blood platelet adhesion.
The number of blood platelets was counted by means of a blood platelet counter.
Inhibitory rate of blood platelet adhesion was calculated according to the following equation: [formula] A: Blood platelet number in the blood platelet suspension passed through a control column
B: Blood platelet number in the blood platelet suspension passed through a bead-packing column

mice = experiment: Anti-thrombotic activity: arachidonic acid-induced mortality in mice; type: in vivo, mouse (male ICR-JCL strain); details: for Survival time of dead mice: arachidonic acid 100 mg/Kg i.v.; for Mortality: arachidonic acid 100 mg/Kg i.v. after 1 hour
Protocol: Male ICR-JCL strain mice with an average body weight of about 25 g and male New Zealand White rabbits with an average body weight of about 3 Kg were used.
Where mice were used as experimental animals, a suspension of the test compound indicated in Table 3 in a 1% tragacanth aqueous solution was orally administered to animals at 20 ml/Kg. One hour after the administration, an arachidonic acid (PL-biochemical Co., Inc.) solution dissolved in a 0.1M sodium carbonate aqueous solution was intravenously given at 100 mg/Kg. Evaluation of activity was effected with the time from the administration of arachidonic acid up to the death of animals as well as mortality.

[3] = tested on: PGI2-like substance in vessel walls; experiment: Influence on production of PGI2-like substance in vessel walls (ADP aggregation with carotid artery ring); type: in vivo, rat (male Wistar-ST strain); details: for Aggregation rate with ADP when carotid artery ring added: 1 hour, 10 μM ADP
Protocol: Male Wistar-ST strain rats with an average weight of about 250 g were used as experimental animals. After fasted for 18 hours, 6.3 ml of blood sample were obtained from corotid artery and immediately thereafter 0.7 ml of an anticoagulant (3.8% sodium citrate) was added and the sample was centrifuged at 200×g over 15 minutes to take platelet-rich plasma (PRP). The same procedures as above were carried out, using 5 to 6 rats, whereby 5-6 ml as normal PRP were stored and employed.
Reference aggregation values were determined by pouring 1 ml each of stored PRP into plastic test tubes, incubating them at 22° C. for 10 minutes and then determining aggregation rate. As an aggregation inducing agent, one employed 10 μM ADP (available from Sigma Co., Inc.)
A suspension of the compound of this invention or aspirin in a 1% aqueous solution of tragacanth was orally given to animals. After 1 hour, 5 mg of carotid artery were cut out in a ring shape and placed into a plastic test tube together with 1 ml of stored PRP. After incubated at 22° C. for 10 minutes, aggregation rate was determined.
Also, non-medicated groups were similarly treated and aggregation rate was determined.
Determination of blood platelet aggregation rate was made by means of an aggregometer.

blood platelet = details: Drugs, 18, 439 (1979); cited from earlier work
blood flow = details: Prostaglandins, 25, 549 (1983); cited from earlier work
brain = details: Am. J. Physiol., 243, H416 (1982); cited from earlier work

| SMILES | inhibition at 30 mg/kg (blood platelets [1]) | inhibition at 100 mg/kg (blood platelets [1]) | inhibition at 300 µM (blood platelets [2]; 3·10^-4 M) | inhibition at 30 µM (blood platelets [2]; 3·10^-5 M) | inhibition at 3 µM (blood platelets [2]; 3·10^-6 M) | inhibition at 0.3 µM (blood platelets [2]; 3·10^-7 M) | Survival time of dead mice (mice; 100 mg/Kg oral) | Mortality (mice; 100 mg/Kg oral) | Survival time of dead mice (mice; 300 mg/Kg oral) | Mortality (mice; 300 mg/Kg oral) | Aggregation rate with ADP when carotid artery ring added ([3]; 30 mg/Kg oral) | Aggregation rate with ADP when carotid artery ring added ([3]; 100 mg/Kg oral) | inhibition of ADP aggregation with PGI2-like substances existing in carotid artery ring (in words) ([3]; from Table 5) | activity to inhibit blood platelet aggregation (in words) (blood platelet) | activity to increase blood flow (in words) (blood flow) | topical blood flow in brain (in words) (brain) |
| --- | --- | --- | --- | --- | --- | --- | --- | --- | --- | --- | --- | --- | --- | --- | --- | --- |
| CC(=O)Oc1ccccc1C(=O)O [Aspirin, aspirin] | 67.5% | 100% | 4% | 5.3% | 8.4% | 3.5% | 322 ± 103 s | 100% | 180 ± 67 s | 37.5% | 45.7% | 58.3% | said phenomena could not be observed | show the activity to inhibit blood platelet aggregation | does not show at all the activity to increase blood flow |  |
| COc1ccc2c(c1)c(CC(=O)O)c(C)n2C(=O)c1ccc(Cl)cc1 [indomethacin] |  |  |  |  |  |  |  |  |  |  |  |  |  | show the activity to inhibit blood platelet aggregation | does not show at all the activity to increase blood flow | did decrease a topical blood flow in brain |
